According to patent US9657022B2, “7-OXO-1,6-diazabicyclo[3.2.1]octane derivatives and their use as antibacterial agents” (WOCKHARDT LIMITED, priority 2014, dated 2017):
Values after ≈ are worked out from the molar mass of the structure shown.

Legend:
[1] = target: Class D beta-lactamase OXA 26 (A. baumannii NCTC 13303) (Acinetobacter baumannii, UniProt Q9F0V2); experiment: Beta-lactamase enzyme inhibition (Nitrocefin, crude enzyme); format: biochemical; conditions: A. baumannii NCTC 13303 (OXA 26), read-out: Beta-lactamase enzyme inhibition IC50
Description: (§1) Absorbance was measured at 485 nm by UV-spectrophotometer. The IC50 was calculated by plotting absorbance against concentration through Sigmoidal dose response curve using Graph Pad software.

[2] = target: T1, Class C beta-lactamase P99 (E. cloacae J137) (Enterobacter cloacae, UniProt P05364); experiment: as above; format: biochemical
T1 construct: preincubated mixture of crude enzyme and the compounds; endogenous in cells; host or cells: E. cloacae J137
Description: as §1

[3] = target: T2, Class D beta-lactamase OXA 23 (A. baumannii NCTC 13301) (Acinetobacter baumannii, UniProt Q9L4P2); experiment: as above; format: biochemical; conditions: Class D, A. baumannii NCTC 13301 (OXA 23); read-out: Beta-lactamase enzyme inhibition IC50
T2 construct: preincubated mixture of crude enzyme and the compounds; endogenous in cells; host or cells: A. baumannii NCTC 13301
Description: as §1
The enzyme inhibition was expressed as IC50.

E. coli NCTC 13353 = experiment: Zone of inhibition, agar well, with and without ceftazidime; format: cell-based; conditions: E. coli NCTC 13353
Description: (§2) In a typical experiment, two sets of plates containing growth media (Molten Mueller Hilton Agar) and bacterial strains were prepared. One set of plates was taken as control (without ceftazidime) and other set contained ceftazidime. The media was allowed to solidify and wells were punched later, into which varying concentrations of compounds according to the invention were poured. A two-fold serial dilution range of each of the compounds according to invention was prepared and 50 μl of each of the dilution was added into the punched well. The plates were then incubated at 37° C. for 18 hours in BOD incubator and diameters of zone of inhibition were measured after the completion of the incubation.
(§3) The Table 6 provides the antibacterial activity of the combination comprising compounds according to invention and ceftazidime. The compounds according to invention were tested at 0.12, 0.25, 0.5 and 1 μg/well.

E. coli M50 = experiment: as above; format: cell-based; conditions: E. coli M50
Description: as §2, §3

E. coli M 49 = experiment: Antibacterial activity (MIC), agar dilution per CLSI; format: cell-based; conditions: Escherichia coli, M49
Description: (§4) The biological activity of representative compounds according to the invention against various bacterial strains was investigated. In a typical study, overnight grown bacterial cultures were diluted appropriately and inoculated on the agar media containing doubling dilutions of the test compounds. Observations for growth or no growth was performed after 16-20 hours of incubation at 35±2° C. in the ambient air. The overall procedure was performed as per Clinical and Laboratory Standards Institute (CLSI) recommendations, (Clinical and Laboratory Standards Institute (CLSI), Performance Standards for Antimicrobial Susceptibility Testing, 20th Informational Supplement, M07-A9, Volume 32, No. 2, 2012). Molten Mueller Hinton Agar (BD, USA) containing serial dilutions of each antibacterial agent were poured on to the plates and allowed to solidify. Appropriate suspensions from the freshly grown cultures were prepared in normal saline so that about 10^4 CFU/spot of the organism was delivered on to the drug containing agar plates using automated multipoint inoculator (Mast, UK). The plates were incubated in Biochemical oxygen demand (BOD) incubator at 37° C. for 18 hours and then examined for growth.
(§5) Table 3 details the antibacterial activity of representative compound of Formula (I), (2S,5R)-sulfuric acid mono-{2-[N′-(2-(S)-pyrrolidin-2-yl-acetyl)-hydrazinocarbonyl]-7-oxo-1,6-diaza-bicyclo[3.2.1]oct-6-yl}ester (Compound of Example 1), against various Multi Drug Resistant (MDR) Gram-negative bacterial strains. The activities are expressed as Minimum Inhibitory Concentrations (MICs) (mcg/ml).

P. aeruginosa ATCC 27853 = experiment: as above; format: cell-based; conditions: Pseudomonas aeruginosa, ATCC27853
Description: as §4, §5

P. aeruginosa PAO1 = experiment: as above; format: cell-based; conditions: Pseudomonas aeruginosa
Description: as §4, §5

K. pneumoniae B 88 = experiment: as above; format: cell-based; conditions: Klebsiella pneumoniae, B88
Description: as §4, §5

K. pneumoniae H 525 = experiment: as above; format: cell-based; conditions: Klebsiella pneumoniae, H525
Description: as §4, §5

K. pneumoniae S 21 = experiment: as above; format: cell-based; conditions: Klebsiella pneumoniae, S21
Description: as §4, §5

E. coli M 50 = experiment: as above; format: cell-based; conditions: Escherichia coli, M50
Description: as §4, §5

E. coli NCTC 13352 = experiment: as above; format: cell-based; conditions: Escherichia coli, NCTC13352
Description: as §4, §5

P. aeruginosa 2779 = experiment: as above; format: cell-based; conditions: Pseudomonas aeruginosa
Description: as §4, §5

P. aeruginosa R 20 = experiment: as above; format: cell-based; conditions: Pseudomonas aeruginosa, R20
Description: as §4, §5

E. cloacae M 20 = experiment: as above; format: cell-based; conditions: Enterobacter cloacae, M20
Description: as §4, §5

E. coli NCTC 13351 = experiment: as above; format: cell-based; conditions: Escherichia coli, NCTC13351
Description: as §4, §5

E. coli 7 MP = experiment: as above; format: cell-based; conditions: Escherichia coli
Description: as §4, §5

C. frundaii 58 MP = experiment: as above; format: cell-based
Description: as §4, §5

[4] = compound 0.25 μg/well + Ceftazidime 10 μg/ml
[5] = compound 0.5 μg/well + Ceftazidime 10 μg/ml
[6] = compound 1 μg/well + Ceftazidime 10 μg/ml
[7] = compound […] + Ceftazidime 10 μg/ml

T1 sequence (P05364 21-381): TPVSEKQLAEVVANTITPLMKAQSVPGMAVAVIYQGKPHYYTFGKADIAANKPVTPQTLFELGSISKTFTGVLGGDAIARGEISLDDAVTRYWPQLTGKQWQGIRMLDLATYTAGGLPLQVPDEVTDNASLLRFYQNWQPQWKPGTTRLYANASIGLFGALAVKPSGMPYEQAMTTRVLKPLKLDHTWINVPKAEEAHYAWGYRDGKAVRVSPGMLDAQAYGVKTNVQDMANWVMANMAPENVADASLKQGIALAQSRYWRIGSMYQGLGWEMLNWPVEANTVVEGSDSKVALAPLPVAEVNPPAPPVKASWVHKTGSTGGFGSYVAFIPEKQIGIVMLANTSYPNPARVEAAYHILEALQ
T2 sequence (Q9L4P2 18-273): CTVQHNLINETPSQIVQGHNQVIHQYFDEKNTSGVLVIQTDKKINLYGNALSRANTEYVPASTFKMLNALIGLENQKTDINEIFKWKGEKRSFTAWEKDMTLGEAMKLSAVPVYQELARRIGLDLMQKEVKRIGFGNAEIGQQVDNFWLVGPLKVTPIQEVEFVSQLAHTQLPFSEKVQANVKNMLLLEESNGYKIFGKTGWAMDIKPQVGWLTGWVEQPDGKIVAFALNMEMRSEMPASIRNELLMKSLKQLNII
Sequence of Class D beta-lactamase OXA 26 (A. baumannii NCTC 13303) (Q9F0V2 entry or part of it): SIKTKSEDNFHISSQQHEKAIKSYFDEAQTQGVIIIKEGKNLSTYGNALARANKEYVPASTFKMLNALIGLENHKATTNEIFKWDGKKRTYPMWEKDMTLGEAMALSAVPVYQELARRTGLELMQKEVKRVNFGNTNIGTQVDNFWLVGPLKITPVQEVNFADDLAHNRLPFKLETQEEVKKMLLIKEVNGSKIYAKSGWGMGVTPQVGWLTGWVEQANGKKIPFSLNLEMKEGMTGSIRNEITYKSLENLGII

Compound: O=C(C[C@@H]1CCCN1)NNC(=O)[C@@H]1CC[C@@H]2CN1C(=O)N2OS(=O)(=O)O [Example 1, (2S,5R)-Sulfuric acid mono-{2-[N′-(2-(S)-pyrrolidin-2-yl-acetyl)-hydrazinocarbonyl]-7-oxo-1,6-diaza-bicyclo[3.2.1]oct-6-yl}ester]
- IC50 [1]: 4.77 µM
- IC50 [2]: 0.027 µM
- IC50 [3]: 2.39 µM
- Diameter of Zone of Inhibition, Compound + Ceftazidime (10 μg/ml) (E. coli NCTC 13353; [4]): 26 mm
- Diameter of Zone of Inhibition, Compound + Ceftazidime (10 μg/ml) (E. coli NCTC 13353; [5]): 28 mm
- Diameter of Zone of Inhibition, Compound + Ceftazidime (10 μg/ml) (E. coli NCTC 13353; [6]): 31 mm
- Diameter of Zone of Inhibition, Compound + Ceftazidime (10 μg/ml) (E. coli NCTC 13353; [7]): 22 mm
- zone of inhibition at […] (E. coli NCTC 13353; Escherichia coli, NCTC13353, compound alone, 0.12 μg/well, read-out: Diameter of Zone of Inhibition, Compound): 11.5 mm
- zone of inhibition at 0.25 µg/disc (E. coli NCTC 13353; Escherichia coli, NCTC13353, compound alone, 0.25 μg/well, read-out: Diameter of Zone of Inhibition, Compound): 14 mm
- zone of inhibition at 0.5 µg/disc (E. coli NCTC 13353; Escherichia coli, NCTC13353, compound alone, 0.5 μg/well, read-out: Diameter of Zone of Inhibition, Compound): 15 mm
- zone of inhibition at 1 µg/disc (E. coli NCTC 13353; Escherichia coli, NCTC13353, compound alone, 1 μg/well, read-out: Diameter of Zone of Inhibition, Compound): 16.5 mm
- Diameter of Zone of Inhibition, Compound + Ceftazidime (10 μg/ml) (E. coli M50; [4]): 19 mm
- Diameter of Zone of Inhibition, Compound + Ceftazidime (10 μg/ml) (E. coli M50; [5]): 20.5 mm
- Diameter of Zone of Inhibition, Compound + Ceftazidime (10 μg/ml) (E. coli M50; [6]): 22.5 mm
- Diameter of Zone of Inhibition, Compound + Ceftazidime (10 μg/ml) (E. coli M50; [7]): 17 mm
- zone of inhibition at […] (E. coli M50; Escherichia coli, compound alone, 0.12 μg/well, read-out: Diameter of Zone of Inhibition, Compound): 10.5 mm
- zone of inhibition at 0.25 µg/disc (E. coli M50; Escherichia coli, compound alone, 0.25 μg/well, read-out: Diameter of Zone of Inhibition, Compound): 14 mm
- zone of inhibition at 0.5 µg/disc (E. coli M50; Escherichia coli, compound alone, 0.5 μg/well, read-out: Diameter of Zone of Inhibition, Compound): 16 mm
- zone of inhibition at 1 µg/disc (E. coli M50; Escherichia coli, compound alone, 1 μg/well, read-out: Diameter of Zone of Inhibition, Compound): 18 mm
- MIC (E. coli M 49): 2 µg/mL (≈ 5.11 µM)
- MIC (P. aeruginosa ATCC 27853): 8 µg/mL (≈ 20.4 µM)
- MIC (P. aeruginosa PAO1): 4 µg/mL (≈ 10.2 µM)
- MIC (K. pneumoniae B 88): 0.5 µg/mL (≈ 1.28 µM)
- MIC (K. pneumoniae H 525): 0.5 µg/mL (≈ 1.28 µM)
- MIC (K. pneumoniae S 21): 2 µg/mL (≈ 5.11 µM)
- MIC (E. coli M 50): 0.5 µg/mL (≈ 1.28 µM)
- MIC (E. coli NCTC 13352): 0.5 µg/mL (≈ 1.28 µM)
- MIC (P. aeruginosa 2779): 8 µg/mL (≈ 20.4 µM)
- MIC (P. aeruginosa R 20): 16 µg/mL (≈ 40.9 µM)
- MIC (E. cloacae M 20): 0.5 µg/mL (≈ 1.28 µM)
- MIC (E. coli NCTC 13351): 0.5 µg/mL (≈ 1.28 µM)
- MIC (E. coli 7 MP): 1 µg/mL (≈ 2.55 µM)
- MIC (C. frundaii 58 MP): 0.5 µg/mL (≈ 1.28 µM)
